Measured values reported in patent US11999720B2, “Pyrazolylacylpyrazoline compounds and method for treating pain” (THE TRUSTEES OF INDIANA UNIVERSITY, priority 2018, dated 2024).

Tests used:
[1] = test system: T1, CaV2.2 channels in HEK-CaV2.2 cells (Rattus norvegicus); test: whole cell patch-clamp, CaV2.2 currents in HEK-CaV2.2 cells; type: cell-based
T1 construct: expressed in transfected cells
Experimental: The G-V curves are shown.
HEK-CaV2.2 cells were pretreated with various concentrations of compound 14 for 48 hours. CaV2.2 currents were acquired during 20-ms depolarizing pulses, and the current densities were calculated as a ratio of the peak current amplitude and each cell capacitance (0.1 μM, n=6; 1 μM, n=7; 10 μM, n=8; 50 μM, n=12). The line is the fit of the data to the four-parameter logistic function.
EK-CaV2.2 cells were pretreated with the indicated compounds for 48 hours. *** corresponds to […].
FIGS. 8 and 9 show the effects of 2 and 14 on the voltage dependence of activation of CaV2.2 channels in HEK-CaV2.2 cells pretreated with the vehicle or the indicated compounds for 48 hours. […] The gray vertical lines are the error bars (S.E.M.).
FIGS. 10 and 11 show acute effects of DMSO and 14 on the voltage dependence of activation of CaV2.2 channels in HEK-CaV2.2 cells. […] The gray vertical lines are the error bars (S.E.M.). “ns”—stands for not significant.
(§1) The whole cell patch-clamp technique was used to record CaV2.2 currents in HEK-CaV2.2 cells and rat DRG neurons. HEK293 cells that stably expressed rat N-type CaV2.2α1B, rat CaVβ3, and rat […] were utilized. Cells were grown in Dulbecco's modified Eagle's medium (DMEM) supplemented with 10% FBS, 50 units penicillin, 50 μg/ml streptomycin, 5 μg/ml blasticidin, 5 μg/ml hydromycin and 25 μg/ml zeozin at 37° C. in a humidified atmosphere of 95% air and 5% CO2. For patch clamp experiments, HEK-CaV2.2 cells were plated on glass coverslips and were cultured for 24-48 h. All animal procedures were performed in accordance to the NIH guide and were approved by the Indiana University School of Medicine Institutional Animal Care and Use Committee. Young adult Sprague Dawley rats were anesthetized (3% isoflurane) and then decapitated. The spinal column was removed, cut open, and dorsal root ganglia were harvested from the Lumbar L4-L6 vertebral levels. The ganglia were incubated in DMEM containing collagenase (1 mg/ml, Worthington: LS04194) and protease (1 mg/ml, Worthington: LS02104) for 30-60 minutes, and DRG neurons were dissociated by triturating in DMEM supplemented with 10% FBS. The isolated DRG neurons were plated on glass coverslips coated with growth factor reduced Matrigel (Thermo Fisher Scientific, Waltham, MA) and were cultured in Eagle's minimum essential medium (Invitrogen, CA) supplemented with 0.2% BSA and 20 ng/ml NGF-2.5S (BD Biosciences, Bedford, MA) at 37° C. in a water-jacketed 5% CO2 incubator overnight for the patch-clamp experiments.

[2] = test system: acute thermal nociception in the rat; test: acute thermal nociception in the rat (Hargreaves' plantar test); type: in vivo; conditions: for paw withdrawal latency (PWL), analgesic effect: rats, n=6 per group, FIG. 12
Experimental: Pathogen-free, adult, female Sprague Dawley (weight at testing 150-200 g; Harlan-Sprague-Dawley, Indianapolis, IN) were housed in a climate-controlled room on a 12-hour light/dark cycle and were allowed to have food and water ad libitum. All procedures were approved by the Indiana University Animal Care and Use Committee and conformed to the guidelines of the National Institutes of Health (publication no. 80-23, 1966) for the use of laboratory animals. All behavioral experiments were conducted by experimenters blinded to the treatment conditions and compound identity. The experiments were replicated a minimum of 2 times with independent cohorts of animals. For in vivo studies, the inventive compounds were freshly prepared saline (0.9%) on the day of the experiment. […] Louis, MO) was freshly prepared on the day of the experiment in saline. All drugs were dissolved in 1 mL solution and administered by intraperitoneal (i.p.) injections 1 h prior to all behavioral assays. To evaluate the PWT to thermal stimulation, the Hargreaves' plantar test apparatus (Ugo Basile, Varese, Italy) was used. Measurements of the withdrawal latency of the paw began after the rats were habituated to the testing environment (IR setting=70). The measurements were repeated four times, at 5 min intervals and the initial pair of measurements was not used. The averages of the three remaining pairs of measurements taken were employed as data. A model of behavioral sensitivity using thermal stimulus was used to determine the acute analgesic properties of the compounds of the present invention.

[3] = test system: tibial nerve injury (TNI) model of neuropathic pain; test: tibial nerve injury (TNI) model of neuropathic pain, von Frey withdrawal threshold; type: in vivo, rat; conditions: for withdrawal threshold to von Frey stimulation: 1 h, 28 days after TNI, before dosing 33.1±5.9, pre-surgery 68.7±3.7
Experimental: Pathogen-free, adult, female Sprague Dawley (weight at testing 150-200 g; Harlan-Sprague-Dawley, Indianapolis, IN) were housed in a climate-controlled room on a 12-hour light/dark cycle and were allowed to have food and water ad libitum. All procedures were approved by the Indiana University Animal Care and Use Committee and conformed to the guidelines of the National Institutes of Health (publication no. 80-23, 1966) for the use of laboratory animals. All behavioral experiments were conducted by experimenters blinded to the treatment conditions and compound identity. The experiments were replicated a minimum of 2 times with independent cohorts of animals.
For in vivo studies, the inventive compounds were freshly prepared saline (0.9%) on the day of the experiment. Morphine sulfate salt (Sigma-Aldrich, St. Louis, MO) was freshly prepared on the day of the experiment in saline. […]
The inventive compounds were assessed with the tibial nerve injury (TNI) model of neuropathic pain 28 days after surgery. Using isoflurane anesthesia (4% induction and 2% maintenance), the right sciatic nerve was isolated under aseptic surgical conditions by blunt dissection of the femoral biceps muscle and the tibial nerve was tightly ligated with 5-0 silk and transected distal to the ligation. Additional 2 to 3 mm of distal nerve stump was removed to prevent reinnervation by the proximal nerve. The overlying muscle and skin was then sutured in 2 separate layers. Sham-injured animals were subjected to all preceding procedures with the exception of ligation and transection. All animals were returned to the housing facility and allowed to survive for 28 d. Mechanical stimuli were applied with 7 filaments, each differing in the bending force delivered (10, 20, 40, 60, 80, 100, and 120 mN), and fitted with a flat tip and fixed diameter of 0.2 mm. The filaments were tested in the order of ascending force, with each filament delivered for 1 second. Withdrawal threshold was determined by sequentially increasing and analyzed with Hill equation was fitted to the function (Origin version 6.0; Microcal Software) relating the percentage of indentations eliciting a withdrawal to the force of indentation.

CaVβ3 = molecular target: T2, CaVβ3 (Rattus norvegicus, UniProt P54287); test: label-free microscale thermophoresis (MST), direct binding; conditions: direct binding to CaVβ3, read-out: dissociation constant (Kd)
T2 construct: made in house; host or cells: E. coli BL21(DE3)
Experimental: Curve fitting analysis led to a dissociation constant of 3.6±1.1 μM.
(§2) The plasmid of pET28a-CaV2.2β3 subunit was transformed into competent E. Coli BL21(DE3) strain. Culture was grown in LB medium at 37° C. to an OD600 of approximately 0.6 and then induced with 0.5 mM IPTG at 16° C. for 16 h. Cells were collected by centrifugation and lysed by microfluidizer in lysis buffer (phosphate buffer, pH 7.6, 2 mM DTT). The His-CaVβ3 protein was purified at 4° C. using Ni-IMAC chromatography (His-Trap HP, GE Healthcare) and eluted with 500 mM imidazole in lysis buffer with a gradient method. After the fractions consisted of His-CaVβ3 was combined and concentrated, the protein was further purified using size exclusion chromatography (Superdex 200 pg, GE Healthcare) in PBS with 2 mM DTT.
Direct binding of compound 6 to CaVβ3 was confirmed with label-free microscale thermophoresis (MST).

CaVα1CaVβ3 interaction = molecular target: T3, CaVα1CaVβ3 interaction (Rattus norvegicus, UniProt P54287); test: fluorescence polarization assay, inhibition constant; type: binding; conditions: fluorescence polarization assay
T3 construct: made in house; host or cells: E. coli BL21(DE3)
Experimental: as §2
(§3) Compound 6 forms a salt bridge interaction with Arg-307 through a benzoic acid moiety. […] Arg-307 was mutated to alanine.

[4] = molecular target: T4, CaV2.2 currents in rat DRG neurons (Rattus norvegicus, UniProt Q02294); test: whole cell patch-clamp, CaV2.2 currents in rat DRG neurons; type: cell-based; conditions: 50 μM acute
T4 construct: from tissue; host or cells: dissociated dorsal root ganglion neurons (L4-L6) of young adult Sprague Dawley rats
Experimental: as §1, with “The isolated DRG neurons were plated on glass coverslips coated with growth factor reduced Matrigel (Thermo Fisher Scientific, Waltham, MA) and were cultured in Eagle's minimum essential medium (Invitrogen, CA) supplemented with 0.2% BSA and 20 ng/ml NGF-2.5S (BD Biosciences, Bedford, MA) at 37° C. in a water-jacketed 5% CO2 incubator overnight for the patch-clamp experiments.” left out

CaVβ3 Arg-307-Ala = molecular target: T5, CaVβ3 Arg-307-Ala (Rattus norvegicus, UniProt P54287, R307A); test: site-directed mutagenesis: displacement of fluorescently-labeled CaVα1-AID bound to mutated CaVβ3; type: binding
T5 construct: His; made in house
Description: as §3

T1 sequence (P54287 whole entry): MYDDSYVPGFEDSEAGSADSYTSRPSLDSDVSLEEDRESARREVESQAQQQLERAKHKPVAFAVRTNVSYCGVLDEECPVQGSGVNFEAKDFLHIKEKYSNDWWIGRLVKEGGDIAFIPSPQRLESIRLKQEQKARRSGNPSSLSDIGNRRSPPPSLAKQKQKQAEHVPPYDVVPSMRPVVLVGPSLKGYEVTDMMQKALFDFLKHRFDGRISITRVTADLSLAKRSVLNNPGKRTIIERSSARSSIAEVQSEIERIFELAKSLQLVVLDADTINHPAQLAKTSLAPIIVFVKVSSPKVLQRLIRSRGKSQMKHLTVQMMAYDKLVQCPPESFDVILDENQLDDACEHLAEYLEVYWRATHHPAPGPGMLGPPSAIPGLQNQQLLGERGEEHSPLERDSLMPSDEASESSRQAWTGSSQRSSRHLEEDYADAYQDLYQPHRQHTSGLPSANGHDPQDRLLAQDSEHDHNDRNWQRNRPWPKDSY
T4 sequence (P54287 whole entry partner): as the sequence (P54287 whole entry) above
T4 sequence (Q02294 whole entry): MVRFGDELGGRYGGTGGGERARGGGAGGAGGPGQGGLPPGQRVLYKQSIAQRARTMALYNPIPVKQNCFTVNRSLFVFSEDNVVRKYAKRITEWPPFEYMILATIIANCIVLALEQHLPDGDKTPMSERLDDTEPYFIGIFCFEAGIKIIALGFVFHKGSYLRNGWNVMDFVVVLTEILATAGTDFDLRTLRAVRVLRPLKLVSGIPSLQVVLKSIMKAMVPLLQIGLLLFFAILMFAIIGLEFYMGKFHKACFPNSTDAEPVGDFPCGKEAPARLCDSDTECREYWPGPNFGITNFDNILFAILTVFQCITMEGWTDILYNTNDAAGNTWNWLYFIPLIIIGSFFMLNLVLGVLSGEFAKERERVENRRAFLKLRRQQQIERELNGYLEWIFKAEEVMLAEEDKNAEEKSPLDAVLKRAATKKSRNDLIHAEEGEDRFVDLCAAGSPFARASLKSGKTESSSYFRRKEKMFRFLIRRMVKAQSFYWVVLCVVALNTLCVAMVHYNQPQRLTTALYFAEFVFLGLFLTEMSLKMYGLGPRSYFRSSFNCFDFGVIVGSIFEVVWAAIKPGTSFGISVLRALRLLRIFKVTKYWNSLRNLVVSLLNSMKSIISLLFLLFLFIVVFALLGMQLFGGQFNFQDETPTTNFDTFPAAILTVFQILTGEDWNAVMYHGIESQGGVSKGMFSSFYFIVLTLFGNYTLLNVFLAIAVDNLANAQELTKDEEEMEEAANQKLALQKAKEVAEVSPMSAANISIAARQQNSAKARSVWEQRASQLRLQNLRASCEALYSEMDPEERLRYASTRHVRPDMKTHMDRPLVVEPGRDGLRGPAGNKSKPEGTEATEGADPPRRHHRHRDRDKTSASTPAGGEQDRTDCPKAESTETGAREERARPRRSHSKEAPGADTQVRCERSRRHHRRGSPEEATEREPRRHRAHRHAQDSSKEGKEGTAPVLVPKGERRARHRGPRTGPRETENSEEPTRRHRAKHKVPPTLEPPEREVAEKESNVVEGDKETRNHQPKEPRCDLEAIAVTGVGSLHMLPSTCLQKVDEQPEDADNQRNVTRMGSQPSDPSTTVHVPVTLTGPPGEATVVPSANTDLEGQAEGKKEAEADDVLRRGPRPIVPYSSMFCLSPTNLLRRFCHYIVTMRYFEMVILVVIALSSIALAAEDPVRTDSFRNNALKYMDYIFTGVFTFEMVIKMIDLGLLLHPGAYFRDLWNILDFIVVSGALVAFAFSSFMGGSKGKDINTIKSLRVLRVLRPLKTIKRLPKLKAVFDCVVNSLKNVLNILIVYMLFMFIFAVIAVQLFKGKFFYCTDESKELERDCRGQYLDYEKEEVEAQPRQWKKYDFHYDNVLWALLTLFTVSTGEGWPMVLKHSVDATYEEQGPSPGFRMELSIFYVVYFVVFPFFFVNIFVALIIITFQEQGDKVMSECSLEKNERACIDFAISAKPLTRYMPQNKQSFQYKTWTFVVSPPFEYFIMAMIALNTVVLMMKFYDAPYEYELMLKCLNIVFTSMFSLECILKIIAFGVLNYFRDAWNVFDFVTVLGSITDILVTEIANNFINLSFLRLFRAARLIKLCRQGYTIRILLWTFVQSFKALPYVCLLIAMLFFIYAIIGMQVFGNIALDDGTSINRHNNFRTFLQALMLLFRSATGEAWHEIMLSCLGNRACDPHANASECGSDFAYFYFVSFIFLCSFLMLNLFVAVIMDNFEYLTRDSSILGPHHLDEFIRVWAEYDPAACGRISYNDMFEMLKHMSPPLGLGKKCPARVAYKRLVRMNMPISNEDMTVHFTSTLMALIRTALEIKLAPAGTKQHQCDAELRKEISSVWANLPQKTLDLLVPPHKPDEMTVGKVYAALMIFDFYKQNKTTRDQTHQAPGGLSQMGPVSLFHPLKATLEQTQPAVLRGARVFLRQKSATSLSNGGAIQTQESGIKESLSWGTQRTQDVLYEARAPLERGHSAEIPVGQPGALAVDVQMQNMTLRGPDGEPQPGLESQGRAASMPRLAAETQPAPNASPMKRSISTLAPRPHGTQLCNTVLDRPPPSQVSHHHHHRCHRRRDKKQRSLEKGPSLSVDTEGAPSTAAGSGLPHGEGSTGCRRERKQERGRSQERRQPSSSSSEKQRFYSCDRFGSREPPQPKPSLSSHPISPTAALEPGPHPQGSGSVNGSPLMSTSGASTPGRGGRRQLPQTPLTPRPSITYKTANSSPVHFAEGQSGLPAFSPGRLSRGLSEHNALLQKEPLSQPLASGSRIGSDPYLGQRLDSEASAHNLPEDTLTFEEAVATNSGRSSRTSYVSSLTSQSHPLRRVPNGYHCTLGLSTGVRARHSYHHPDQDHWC
T2 sequence (P54287 whole entry): as the sequence (P54287 whole entry) above
T3 sequence (P54287 whole entry): as above
T5 sequence (P54287 whole entry R307A): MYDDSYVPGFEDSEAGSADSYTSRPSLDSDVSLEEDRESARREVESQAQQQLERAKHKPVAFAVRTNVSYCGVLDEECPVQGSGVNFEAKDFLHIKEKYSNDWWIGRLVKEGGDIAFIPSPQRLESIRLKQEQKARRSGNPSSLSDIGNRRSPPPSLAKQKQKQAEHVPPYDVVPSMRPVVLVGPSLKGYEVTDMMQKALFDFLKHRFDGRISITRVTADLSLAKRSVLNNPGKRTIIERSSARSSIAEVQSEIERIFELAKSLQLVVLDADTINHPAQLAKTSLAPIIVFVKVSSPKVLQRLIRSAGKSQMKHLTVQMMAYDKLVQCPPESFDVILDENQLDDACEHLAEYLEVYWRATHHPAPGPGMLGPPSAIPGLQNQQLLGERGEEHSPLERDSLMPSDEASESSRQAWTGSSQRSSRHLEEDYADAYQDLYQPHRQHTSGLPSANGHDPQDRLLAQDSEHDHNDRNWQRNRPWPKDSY

steady-state inactivation V0.5, inact ([1]; 50 μM, pretreated 48 hours) [mV]	density of CaV2.2 currents ([1]; 50 μM, pretreated 48 hours, depolarizing pulses to 0 mV from holding potential −80 mV, DMSO −74.8±7.0) [pA/pF]	mean half-activation potential V0.5, act ([1]; pretreated 48 hours, DMSO 8.7±1.1) [mV]	effect on CaV2.2 currents amplitudes ([1]; used acutely or as a long-term treatment, HEK-CaV2.2 cells)	effect on CaV2.2 currents, acute application ([1]; 50 μM acute, HEK-CaV2.2 cells)	CaV2.2 current density ([1]; 50 μM, pretreated 48 hours, DMSO −98.0±12.5) [pA/pF]	mean half-activation potential ([1]; pretreated 48 hours (50 μM per FIG. 4), DMSO 6.7±0.6) [mV]	Kd (CaVβ3) [nM]	Ki (CaVα1CaVβ3 interaction) [nM]	effect on CaV2.2 currents, acute application [4]	SMILES	paw withdrawal latency (PWL), analgesic effect [2]	withdrawal threshold to von Frey stimulation ([3]; 10 mg/kg ip) [mN]	response latency to thermal stimulus ([2]; systemic administration, 1 or 10 mg/kg)	inhibition of the protein-protein interaction with CaVβ3 Arg-307-Ala (displacement of fluorescently-labeled CaVα1-AID) (CaVβ3 Arg-307-Ala)	effect on behavior (tactile hypersensitivity) ([3]; 1 mg/kg and 0.1 mg/kg, at 1 or 4 hours)	attenuation of tactile hypersensitivity at 4 h ([3]; 10 mg/kg ip, 4 h after administration)	duration of reversal of mechanical hypersensitivity ([3]; 10 mg/kg, 4 weeks after TNI)
−61.6±2.0	−79.2±8.2	8.5±1.4	did not affect							COc1ccc(C2=NN(C(=O)CCC(C)=O)C(c3cn(-c4ccccc4)nc3-c3ccc(C)cc3)C2)cc1 (stereo not shown) [Compound 2, 1-(5-(4-methoxyphenyl)-1′-phenyl-3′-(p-tolyl)-3,4-dihydro-1′H,2H-[3,4′-bipyrazol]-2-yl)pentane-1,4-dione]	lack of analgesic effect	32±2.6					
				did not affect	−28.7±5.0	9.4±1.2	3600 ± 1100	1400 ± 100	did not affect	COc1ccc(C2=NN(C(=O)c3cccc(C(=O)O)c3)C(c3cn(-c4ccccc4)nc3-c3ccc(C)cc3)C2)cc1 (stereo not shown) [Compound 6, 3-(5-(4-methoxyphenyl)-1′-phenyl-3′-(p-tolyl)-3,4-dihydro-1′H,2H-[3,4′-bipyrazole]-2-carbonyl)benzoic acid]	lack of analgesic effect	62.2±3.1	failed to elicit changes	does not inhibit	did not alter behavior	not at 4 h	limited to 1 h
